How the values were obtained:
[1] = Bidirectional transport of silybin across Caco-2 cell monolayers; format: in vitro ADME, Human; conditions: human; Caco-2, silybin 2.5, 5 and 10 μM, with baicalein 5 μM
Description: Human colon epithelial cell line (Caco-2) was purchased from American Type Culture Collection (Manassas, VA, United States) and frozen at -80°C. Wild type MDCK II, MDR1-MDCK II, BCRP-MDCK II, and MRP2-MDCK II cells were kindly supplied by the Netherlands Cancer Institute (Amsterdam, Netherlands). Transport study was carried out with Caco-2 cells, and MDCK II cells were transfected using a previously established method with slight modifications ([Yuan et al., 2017]). The Caco-2 cells were cultured at 37°C/5% CO2 in Dulbecco's modified Eagle's medium (DMEM) supplemented with 10% fetal bovine serum, 1% nonessential amino acids, and 1% penicillin-streptomycin. The Caco-2 cells were seeded onto polyester filter membranes in a 12-well Transwell® plate (Corning Costar Co., NY, United States) with 0.6 × 10^5 cells/cm^2. The monolayer cells were used for transport assays between 21 and 23 days. The MDCKII cells were seeded on transwell plates with a density of 2.0 × 10^5 cells/cm^2 and grown for 4-5 days to form a confluent monolayer. Bidirectional transport assays for Caco-2 and MDCK II cells were performed by adding silybin (10 μM) in assay buffer into either the apical (AP; A-to-B) or basolateral (BL; […] For inhibition studies, Caco-2 or MDCK II cell monolayers in both apical and basolateral chambers were preincubated with the inhibitor for 30 min. The fluorescence intensity of the sample collected from the AP or BL side was immediately detected in a 96-well black plate by the Microplate UV/VIS spectrophotometer (TECAN Infinite […], Männedorf, Switzerland). For liquid chromatography tandem-mass spectrometry (LC-MS/MS) analysis, the sample (100 μl) was mixed with methanol (50 μl) containing internal standard (25 ng/ml) and was stored at -80°C. The formula for calculating apparent permeability coefficient (Papp) values is as follows: (1) […] where dQ/dt (mM/s) represents the rate of permeation of the drug across the cells, C0 (mM) refers to the concentration in the donor compartment at time zero calculated from dosing solution, and A (cm^2) refers to the area of the cell monolayer. Papp (B-A) is the Papp value measured in the B to A direction, and Papp (A-B) is the Papp value measured in the A to B direction. The efflux ratio is given as ER = Papp (B to A)/Papp (A to B).

[2] = test system: CCl4-induced liver injury model; experiment: CCl4-induced acute liver injury in rats; format: in vivo, SD rats; set-up: Nerosis (histologic score, liver H&E) / Haemorrhage (histologic score, liver H&E) / Inflammation (histologic score, liver H&E) / Steatosis (histologic score, liver H&E): scale not given here
Description: Male SD rats were randomly divided into seven groups: […] (2) Group II, given blank vehicle p.o. for 7 days; (3) Group III, treatment with silybin (100 mg/kg bodyweight, p.o.) for 7 days; […] After 24 h of CCl4 treatment, all rats were sacrificed under ether anesthesia. Blood samples were collected from the abdominal aorta for biochemical estimations. The liver was immediately removed and weighed with a large portion of the liver frozen in liquid nitrogen. The pathological liver changes were examined by hematoxylin and eosin (H&E) staining, which was performed by a pathologist who was blinded to this study. The serum levels of ALT, AST, AKP, and SOD as well as the cytokines TNF- α, IL-6, and IL-1β were detected by the assay kit, according to the manufacturer’s instructions.

[3] = set-up: method as in Pradhan and Girish, 2006; conditions: doses <10 g/d; ref Pradhan and Girish, 2006; cited from earlier work
[4] = set-up: method as in Wen et al., 2008; conditions: after oral administration; ref Wen et al., 2008; cited from earlier work
[5] = 100 mg/kg p.o. 7 days, single agent, CCl4 on day 7
[6] = silybin 100 mg/kg for 7 consecutive days, P < 0.01

For `COc1cc(C2Oc3cc([C@H]4Oc5cc(O)cc(O)c5C(=O)[C@@H]4O)ccc3OC2CO)ccc1O` (some centres unmarked) [silybin, Silybin], which efflux ratio at 180 min [1] is on record?
Its efflux ratio at 180 min is ~2.

And the “Haemorrhage (histologic score, liver H&E)” value [2, 5]?
The value was 2.2±0.8.

And the “Inflammation (histologic score, liver H&E)” value [2, 5]?
The value was 2.0±0.6.

And the “Nerosis (histologic score, liver H&E)” value [2, 5]?
The value was 2.7±0.5.

And the “Steatosis (histologic score, liver H&E)” value [2, 5]?
Its value is 2.2±0.8.

What about the “CCl4-induced increase of liver weight and ratio of liver to body weight” value ([2]; p.o. 7 days before CCl4, p < 0.01) of the same compound?
Its value is “abrogated”.

What about the “CCl4-induced increase in serum IL-1β, IL-6, and TNF-α levels” value [2, 6] of the same compound?
The value was “significantly prevented”.

And the “CCl4-induced increase in the serum activities of ALT, AST, and AKP” value [2, 6]?
The value was “significantly prevented”.

And the side effects [3]?
The side effects was “no significant side effects”.

And the glucuronide conjugated silybin [4]?
The glucuronide conjugated silybin was 55%.

And the sulfate conjugated silybin [4]?
Its sulfate conjugated silybin is 28%.

Reference: PMC6212553, “Baicalein Enhances the Oral Bioavailability and Hepatoprotective Effects of Silybin Through the Inhibition of Efflux Transporters BCRP and MRP2” (Frontiers in Pharmacology, 2018)
